# Reference: ChEMBL document CHEMBL1201862, “PubChem BioAssay data set” (2004)
# The source made the active and inactive calls.
# Columns and labels:
# [1] = target: T1, E3 ubiquitin-protein ligase XIAP (Homo sapiens, UniProt P98170); assay: Counter Screen using XIAP-Bir3 for Chemical Antagonists of Bir1/2 domains of IAP-family anti-apoptotic proteins. [Related pubchem assays (depositor defined):AID1018, AID1449, AID1514, AID1638, AID1749, AID1750, AID488957, AID488963]
# [2] = target: T1, E3 ubiquitin-protein ligase XIAP; assay: small molecules displacing peptide from XIAP – biochemical, IAP family, fluorescence polarization (AID 1018); type: functional
# [3] = target: Mitogen-activated protein kinase 10 (Homo sapiens, UniProt P53779); assay: Dose response biochemical screening assay for inhibitors of c-Jun N-Terminal Kinase 3 (JNK3). [Related pubchem assays: 746 ]
# Chain of Mitogen-activated protein kinase 10 (P53779 whole entry): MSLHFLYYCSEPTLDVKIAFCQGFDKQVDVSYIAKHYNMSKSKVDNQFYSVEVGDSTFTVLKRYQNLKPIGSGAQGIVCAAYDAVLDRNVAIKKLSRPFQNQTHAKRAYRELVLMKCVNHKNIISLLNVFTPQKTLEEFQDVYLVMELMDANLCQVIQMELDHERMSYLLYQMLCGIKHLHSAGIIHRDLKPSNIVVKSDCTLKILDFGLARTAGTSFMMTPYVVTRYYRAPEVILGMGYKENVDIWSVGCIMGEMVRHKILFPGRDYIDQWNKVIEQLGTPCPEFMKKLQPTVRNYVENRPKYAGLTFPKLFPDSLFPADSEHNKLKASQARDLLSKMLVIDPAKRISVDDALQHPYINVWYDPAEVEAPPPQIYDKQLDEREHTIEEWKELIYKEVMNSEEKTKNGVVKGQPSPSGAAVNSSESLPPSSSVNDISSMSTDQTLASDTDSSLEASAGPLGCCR
# [4] = target: Peroxisome proliferator-activated receptor gamma/Nuclear receptor coactivator 3 (Homo sapiens, UniProt P37231); assay: TR-FRET dose response biochemical High Throughput Screening assay for agonists of the steroid receptor coactivator 3 (SRC-3) recruitment by the peroxisome proliferator-activated receptor gamma (PPAR gamma): non-selective agonists. [Related pubchem assays: 1301 (Confirmation screen.), 1048 (Primary screen.)]; type: functional
# Chain of Peroxisome proliferator-activated receptor gamma/Nuclear receptor coactivator 3 (P37231 whole entry): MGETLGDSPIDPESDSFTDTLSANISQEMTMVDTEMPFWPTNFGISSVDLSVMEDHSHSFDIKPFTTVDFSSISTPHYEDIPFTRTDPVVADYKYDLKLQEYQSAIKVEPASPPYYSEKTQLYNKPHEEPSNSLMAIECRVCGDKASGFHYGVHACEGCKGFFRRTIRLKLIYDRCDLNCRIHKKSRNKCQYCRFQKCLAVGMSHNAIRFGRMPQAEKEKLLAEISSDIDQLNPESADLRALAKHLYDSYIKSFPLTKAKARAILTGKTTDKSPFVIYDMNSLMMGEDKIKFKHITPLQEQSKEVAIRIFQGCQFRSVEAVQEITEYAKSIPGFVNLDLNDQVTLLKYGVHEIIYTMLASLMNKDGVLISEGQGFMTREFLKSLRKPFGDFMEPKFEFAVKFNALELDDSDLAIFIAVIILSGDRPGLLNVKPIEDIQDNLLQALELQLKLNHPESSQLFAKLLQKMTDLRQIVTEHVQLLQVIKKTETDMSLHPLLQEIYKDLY
# Chain of Peroxisome proliferator-activated receptor gamma/Nuclear receptor coactivator 3 (Q9Y6Q9 whole entry, further chain): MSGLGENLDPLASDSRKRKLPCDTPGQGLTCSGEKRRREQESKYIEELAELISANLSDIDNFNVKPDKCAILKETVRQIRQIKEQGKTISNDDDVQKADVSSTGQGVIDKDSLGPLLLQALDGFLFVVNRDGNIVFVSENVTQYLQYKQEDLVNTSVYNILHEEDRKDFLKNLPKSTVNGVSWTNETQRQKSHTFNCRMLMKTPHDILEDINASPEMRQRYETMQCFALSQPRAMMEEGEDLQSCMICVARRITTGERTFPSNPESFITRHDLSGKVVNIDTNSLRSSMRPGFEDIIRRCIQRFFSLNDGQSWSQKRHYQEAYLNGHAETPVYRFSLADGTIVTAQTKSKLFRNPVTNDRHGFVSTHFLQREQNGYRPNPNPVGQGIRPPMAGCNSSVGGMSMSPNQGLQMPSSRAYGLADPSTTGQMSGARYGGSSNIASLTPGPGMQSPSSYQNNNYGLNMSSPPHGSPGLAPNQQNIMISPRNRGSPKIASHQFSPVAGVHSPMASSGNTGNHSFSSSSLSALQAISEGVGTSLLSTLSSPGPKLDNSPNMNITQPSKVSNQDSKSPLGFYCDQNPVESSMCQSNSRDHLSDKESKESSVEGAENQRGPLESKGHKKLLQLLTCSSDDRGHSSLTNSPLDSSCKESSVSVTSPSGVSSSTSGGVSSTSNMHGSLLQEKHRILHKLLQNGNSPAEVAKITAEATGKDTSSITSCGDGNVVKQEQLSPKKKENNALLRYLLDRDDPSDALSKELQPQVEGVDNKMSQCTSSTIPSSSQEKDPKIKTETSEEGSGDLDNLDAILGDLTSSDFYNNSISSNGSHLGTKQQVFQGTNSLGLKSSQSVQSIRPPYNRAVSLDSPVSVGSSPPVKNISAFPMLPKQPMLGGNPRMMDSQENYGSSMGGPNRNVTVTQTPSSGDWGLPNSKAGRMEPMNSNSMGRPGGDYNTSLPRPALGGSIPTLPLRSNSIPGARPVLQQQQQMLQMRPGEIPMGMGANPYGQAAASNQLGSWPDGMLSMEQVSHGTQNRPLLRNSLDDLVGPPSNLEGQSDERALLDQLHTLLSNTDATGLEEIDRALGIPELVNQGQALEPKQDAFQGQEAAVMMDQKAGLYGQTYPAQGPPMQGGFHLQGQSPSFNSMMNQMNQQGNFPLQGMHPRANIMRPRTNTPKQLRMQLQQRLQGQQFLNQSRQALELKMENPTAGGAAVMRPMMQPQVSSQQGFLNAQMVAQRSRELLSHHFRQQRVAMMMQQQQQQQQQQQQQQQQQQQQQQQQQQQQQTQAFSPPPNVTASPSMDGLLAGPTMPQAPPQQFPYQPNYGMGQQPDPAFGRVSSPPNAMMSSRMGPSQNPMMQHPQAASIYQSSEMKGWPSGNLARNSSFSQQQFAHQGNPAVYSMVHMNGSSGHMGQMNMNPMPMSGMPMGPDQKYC
# [5] = target: Peroxisome proliferator-activated receptor gamma/Nuclear receptor coactivator 2 (Homo sapiens, UniProt P37231); assay: (§1) TR-FRET dose response biochemical High Throughput Screening assay for agonists of the steroid receptor coactivator 2 (SRC-2) recruitment by the peroxisome proliferator-activated receptor gamma (PPAR gamma): non-selective agonists. [Related pubchem assays: 1297, 1032 ]; type: functional
# [6] = target: Peroxisome proliferator-activated receptor gamma/Nuclear receptor coactivator 1 (Homo sapiens, UniProt P37231); assay: as §1, with “1 (SRC-1)” for “2 (SRC-2)”, “assays (depositor defined):AID1300, AID1808, AID504735, AID631]” for “assays: 1297, 1032 ]”; type: protein assay
# Chain of Peroxisome proliferator-activated receptor gamma/Nuclear receptor coactivator 1 (P37231 whole entry): as the sequence (P37231 whole entry) above
# Chain of Peroxisome proliferator-activated receptor gamma/Nuclear receptor coactivator 1 (Q15788 whole entry, further chain): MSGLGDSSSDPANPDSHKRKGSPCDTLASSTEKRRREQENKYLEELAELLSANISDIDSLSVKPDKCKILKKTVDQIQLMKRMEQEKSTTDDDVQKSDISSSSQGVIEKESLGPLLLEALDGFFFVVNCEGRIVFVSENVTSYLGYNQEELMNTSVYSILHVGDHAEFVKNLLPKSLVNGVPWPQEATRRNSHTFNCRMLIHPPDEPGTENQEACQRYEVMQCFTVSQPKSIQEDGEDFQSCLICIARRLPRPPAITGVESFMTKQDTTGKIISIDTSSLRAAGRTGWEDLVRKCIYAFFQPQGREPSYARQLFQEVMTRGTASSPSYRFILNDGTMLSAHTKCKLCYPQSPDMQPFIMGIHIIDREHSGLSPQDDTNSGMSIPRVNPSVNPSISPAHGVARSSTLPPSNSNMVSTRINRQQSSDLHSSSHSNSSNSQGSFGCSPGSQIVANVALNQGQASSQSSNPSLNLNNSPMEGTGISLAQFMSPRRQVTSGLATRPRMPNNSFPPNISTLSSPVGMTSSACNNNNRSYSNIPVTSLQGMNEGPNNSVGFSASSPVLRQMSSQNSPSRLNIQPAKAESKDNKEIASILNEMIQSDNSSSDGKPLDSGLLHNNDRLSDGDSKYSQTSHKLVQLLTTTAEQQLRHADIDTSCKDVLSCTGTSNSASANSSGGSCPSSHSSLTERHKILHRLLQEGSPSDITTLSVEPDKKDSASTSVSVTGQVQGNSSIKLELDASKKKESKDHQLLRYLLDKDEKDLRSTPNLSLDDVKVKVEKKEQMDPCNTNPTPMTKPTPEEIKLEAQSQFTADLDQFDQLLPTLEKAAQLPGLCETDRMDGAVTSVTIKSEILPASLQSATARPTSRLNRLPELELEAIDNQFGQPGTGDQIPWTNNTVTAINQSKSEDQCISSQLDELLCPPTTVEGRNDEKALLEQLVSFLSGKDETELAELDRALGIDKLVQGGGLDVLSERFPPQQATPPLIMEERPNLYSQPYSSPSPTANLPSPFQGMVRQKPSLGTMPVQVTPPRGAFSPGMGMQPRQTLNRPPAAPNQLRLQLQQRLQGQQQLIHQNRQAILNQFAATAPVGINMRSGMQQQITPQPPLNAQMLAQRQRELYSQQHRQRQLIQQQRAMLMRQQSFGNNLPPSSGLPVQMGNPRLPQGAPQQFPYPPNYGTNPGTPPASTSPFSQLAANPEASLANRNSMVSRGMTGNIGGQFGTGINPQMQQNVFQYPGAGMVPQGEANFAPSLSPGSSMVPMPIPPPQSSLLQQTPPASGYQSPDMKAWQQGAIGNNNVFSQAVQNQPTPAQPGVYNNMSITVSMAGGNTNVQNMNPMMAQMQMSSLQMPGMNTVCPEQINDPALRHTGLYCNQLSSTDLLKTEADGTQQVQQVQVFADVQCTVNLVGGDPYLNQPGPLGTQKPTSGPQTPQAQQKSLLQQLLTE
# [7] = test system: P388; assay: cells; type: functional; conditions: Mus musculus
# [8] = target: Cytochrome P450 2C19 (Homo sapiens, UniProt P33261); assay: Cytochrome panel assay with activity outcomes. Panel member name: p450-cyp2c19 Compounds with AC50 equal or less than 10 uM are considered active; type: functional; conditions: read-out: AC50
# [9] = test system: P388/ADR; assay: cells; type: functional; conditions: Mus musculus
# [10] = test system: SN12K1; assay: cells; type: functional; conditions: Homo sapiens
# [11] = target: T2, Aminopeptidase N (Plasmodium falciparum FcB1/Columbia, UniProt O96935); assay: malaria alanyl aminopeptidase activity blockers – biochemical, fluorogenic H-Leu-NHMec substrate, 1536-well (AID 1445); design: species or system Plasmodium falciparum 3D7, 3D7
# T2 sequence (O96935 whole entry): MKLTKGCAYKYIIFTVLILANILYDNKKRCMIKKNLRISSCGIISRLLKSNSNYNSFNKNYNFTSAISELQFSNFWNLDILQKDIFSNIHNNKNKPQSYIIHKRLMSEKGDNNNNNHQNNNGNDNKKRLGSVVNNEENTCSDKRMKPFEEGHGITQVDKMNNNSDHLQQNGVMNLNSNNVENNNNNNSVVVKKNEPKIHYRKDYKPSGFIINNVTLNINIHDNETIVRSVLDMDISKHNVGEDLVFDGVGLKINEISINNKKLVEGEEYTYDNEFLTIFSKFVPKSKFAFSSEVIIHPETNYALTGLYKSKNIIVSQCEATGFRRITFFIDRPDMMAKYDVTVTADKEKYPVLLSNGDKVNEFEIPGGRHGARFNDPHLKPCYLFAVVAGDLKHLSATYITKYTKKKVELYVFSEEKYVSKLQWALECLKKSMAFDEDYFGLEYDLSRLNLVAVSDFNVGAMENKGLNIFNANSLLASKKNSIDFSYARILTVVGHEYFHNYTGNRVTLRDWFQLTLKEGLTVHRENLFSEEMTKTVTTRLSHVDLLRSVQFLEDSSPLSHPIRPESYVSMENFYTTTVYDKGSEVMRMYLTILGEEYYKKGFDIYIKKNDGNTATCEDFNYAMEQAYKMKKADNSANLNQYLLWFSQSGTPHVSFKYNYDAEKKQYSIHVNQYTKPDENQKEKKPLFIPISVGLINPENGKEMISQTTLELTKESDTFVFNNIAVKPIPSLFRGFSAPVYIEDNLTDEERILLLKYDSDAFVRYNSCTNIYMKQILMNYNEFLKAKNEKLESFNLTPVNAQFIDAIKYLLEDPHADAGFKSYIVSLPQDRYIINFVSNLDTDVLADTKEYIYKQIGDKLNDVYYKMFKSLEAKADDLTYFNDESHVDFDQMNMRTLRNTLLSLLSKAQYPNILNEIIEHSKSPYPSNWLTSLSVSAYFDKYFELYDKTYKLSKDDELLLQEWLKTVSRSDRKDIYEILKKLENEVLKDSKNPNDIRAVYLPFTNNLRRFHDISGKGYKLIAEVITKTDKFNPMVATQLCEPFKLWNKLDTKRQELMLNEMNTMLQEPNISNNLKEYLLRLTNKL
# [12] = target: Genome polyprotein (dengue virus type 2, UniProt P29990); assay: flavivirus cap methylation enzyme inhibition – biochemical, confirmation dose response, primary screen (AID 588689); type: functional
# [13] = off-target signal loss in HeLa-CEM21 co-culture – HeLa F-luc CTL cells, cherry-picked, counter-screen for HIV-1 Env fusion inhibitor project, dose response (AID 652040); type: functional, cell-based;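 note: potency for signal decrease marking cytotoxic or nonspecific inhibition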
# [14] = HIV-1 AD8 envelope cell-cell fusion blockers – cherry-pick, dose response (AID 652062); type: functional, cell-based;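 note: luciferase signal from cell-cell fusion driven by HIV-1 clade B AD8 Env; potency is for inhibitors of fusion seen as a drop in luminescence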
# [15] = target: T3, Rac GTPase-activating protein 1 (Homo sapiens, UniProt Q9H0H5); assay: blockers of MgcRacGAP-driven Rac1 GTP hydrolysis – biochemical, ADP Hunter fluorescence, primary and confirmatory, confirmation (AID 624330); type: functional
# T3 sequence (Q9H0H5 whole entry): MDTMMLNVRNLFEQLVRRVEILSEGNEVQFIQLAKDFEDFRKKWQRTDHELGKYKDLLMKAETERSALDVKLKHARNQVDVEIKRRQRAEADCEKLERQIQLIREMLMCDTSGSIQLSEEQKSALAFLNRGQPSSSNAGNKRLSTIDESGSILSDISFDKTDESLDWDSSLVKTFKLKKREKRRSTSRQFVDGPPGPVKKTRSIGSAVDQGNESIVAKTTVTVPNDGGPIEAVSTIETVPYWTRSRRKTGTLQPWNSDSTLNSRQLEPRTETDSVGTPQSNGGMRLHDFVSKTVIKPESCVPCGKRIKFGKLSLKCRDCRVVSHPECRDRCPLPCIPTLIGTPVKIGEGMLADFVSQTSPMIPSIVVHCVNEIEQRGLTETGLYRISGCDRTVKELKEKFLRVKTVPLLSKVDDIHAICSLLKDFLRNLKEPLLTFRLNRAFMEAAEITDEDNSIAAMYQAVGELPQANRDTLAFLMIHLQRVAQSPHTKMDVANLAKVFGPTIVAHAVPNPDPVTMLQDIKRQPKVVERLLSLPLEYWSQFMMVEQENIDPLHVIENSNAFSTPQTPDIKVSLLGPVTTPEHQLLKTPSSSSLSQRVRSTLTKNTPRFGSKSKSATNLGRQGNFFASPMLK
# T1 sequence (P98170 whole entry): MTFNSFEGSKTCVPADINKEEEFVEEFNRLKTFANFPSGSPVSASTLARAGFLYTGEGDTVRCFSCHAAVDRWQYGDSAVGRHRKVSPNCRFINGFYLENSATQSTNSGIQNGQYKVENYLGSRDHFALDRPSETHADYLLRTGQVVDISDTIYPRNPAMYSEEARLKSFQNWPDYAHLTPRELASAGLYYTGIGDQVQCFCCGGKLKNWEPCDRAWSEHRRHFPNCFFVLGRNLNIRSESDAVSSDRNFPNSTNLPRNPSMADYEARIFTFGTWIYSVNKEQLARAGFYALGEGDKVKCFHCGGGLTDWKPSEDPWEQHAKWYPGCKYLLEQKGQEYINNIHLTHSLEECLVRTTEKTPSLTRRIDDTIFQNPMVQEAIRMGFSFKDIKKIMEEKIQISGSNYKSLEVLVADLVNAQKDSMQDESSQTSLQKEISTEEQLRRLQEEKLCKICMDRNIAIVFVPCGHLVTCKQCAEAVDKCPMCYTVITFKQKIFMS
Compound,IC50 [1],IC50 [2],EC50 [4],EC50 [5],EC50 [6],other results
COc1ccc(S(=O)(=O)CCC(=O)NC2CCCCC2)cc1,> 100 µM (inactive),> 100 µM (not active),,,,
c1ccc2[nH]c(CSc3ncnc4c3oc3ccccc34)nc2c1,,,> 79.4 µM (not active),5.6 µM (active),9.02 µM (active),IC50 [3]: > 93.1 µM (not active)
Cc1c2cnccc2c(C)c2c1c1ccccc1n2CCOC(=O)c1ccccc1,,,,,,GI50 [7]: 4.95 µM (inactive); AC50 [8]: 0.794 µM (inconclusive); GI50 [9]: 9.23 µM (inactive); GI50 [10]: 10.3 µM (inactive)
COc1cccc(C2CC(c3c(O)nc4ccc(Cl)cc4c3-c3ccccc3)=NN2S(C)(=O)=O)c1OC (centres undefined),,,,,,IC50 [11]: 78.2 µM (active)
O=C(O)c1cccc2c1C(=O)c1ccc(-c3ccc(F)cc3OCc3ccccc3)cc1S2(=O)=O,,,,,,IC50 [12]: 50.5 µM (active)
Cn1c(SCc2nc(-c3ccc(Cl)cc3)no2)nnc1-c1cccs1,,,,,,AC50 [13]: 3.1 µM (active); AC50 [14]: 9.06 µM (active)
CCOC(=O)c1c(C)nsc1S,,,> 79.4 µM (not active),> 26.5 µM (not active),> 79.4 µM (inactive),IC50 [15]: 56.6 µM (active); IC50 [3]: 30.5 µM (not active)
CN(Cc1ccccc1)C(=O)CSc1cc(=O)n(C)c2ccccc12,,,> 79.4 µM (not active),> 79.4 µM (not active),> 79.4 µM (inactive),
CCCc1nc(SCC(=O)Nc2ccc(S(=O)(=O)N(C)C)cc2)c2ccccc2n1,> 100 µM (inactive),> 100 µM (not active),,,,
CC(=O)CSc1ncnc2c1oc1ccccc12,,,> 79.4 µM (not active),> 26.5 µM (not active),> 79.4 µM (inactive),
O=C(C1CC(c2ccc(F)cc2)=NO1)N1CCc2ccccc2C1 (centres undefined),> 100 µM (inactive),> 100 µM (not active),,,,
CCCCOC(=O)CNc1nnc(S)nc1O,,,91.3 µM (not active),4.23 µM (active),5 µM (active),
COC(=O)/C=C/C(=O)N1CCN(c2ccccc2)CC1,> 100 µM (inactive),> 100 µM (not active),,,,
